For two molecules, IC50 and tumor growth inhibition results are on record in US20260345771A1, “THERAPY COMPRISING ANTI-CD19 ANTIBODY AND EZH2 MODULATORS” (Incyte Corporation, priority 2022, published 2026).

As usually defined, the IC50 is the concentration needed to halve the response being measured. A high value points to weaker potency.

One test has as its system SU-DHL-4 cells. Nature of the test: CellTiter-Glo (CTG) viability assay, SU-DHL-4. Conditions: Homo sapiens, SU-DHL-4, 168 h. The format is cell-based. The protocol:
(§1) A panel of 6 lymphoma cell lines was included in the analysis (5 DLBCL and 1 Burkitt lymphoma). All cell lines were cultured in RPMI 1640 medium (Gibco) supplemented with 10%-20% FCS (Sigma) at 37 °C in 5% CO2.
(§2) To analyze direct cytotoxic and anti-proliferative effects on target cells, cell viability assays were performed using the CellTiter-Glo Kit (Promega), a luminescence assay for determination of viable cell number based on quantification of adenosine triphosphate (ATP) levels. […] Cell densities were adjusted at days 3 and 7 during the assay to avoid overgrowth. The assay was performed in clear 48- and 96-F-well bottom plates in a final volume of 1 mL or 200 μL, respectively, in a cell incubator at 37 °C and 5% CO2. In each experiment, all test conditions were performed in triplicates.
(§3) Cell viability was analyzed according to the manufacturer's protocol using the Tecan Infinite F500 plate reader. The relative viable cell count was calculated from the measured relative luminescence units (RLU) with the following equation: […]
(§4) For graphical illustration and IC50 determination, the mean values of triplicates (viability assay) or duplicates (CD19 expression) of the individual experiments were imported into GraphPad Prism software (version 8). […] IC50 curves were determined applying a non-linear regression curve fit model (sigmoidal dose response, variable slope).

Another test has as its system SU-DHL-6 cells. As to the kind of experiment: CellTiter-Glo (CTG) viability assay, SU-DHL-6. The format is cell-based. Conditions: Homo sapiens, 168 h; SU-DHL-6, 7 days, compound alone. The method, then: as §1, §2, §3, §4
A general note: In ATP-based viability assays light output follows the ATP content of the culture.

For another test, the system named is WSU-DLCL2 tumor. As to the kind of experiment: Tumor growth in WSU-DLCL2 tumor bearing CB17-SCID mice. It is filed as in vivo. The method, then: The in vivo study was carried out in WSU-DLCL2 tumor bearing CB17-SCID mice. 4×10^6 WSU-DLCL2 cells (DLBCL cell line) per animal were implanted with matrigel (1:1) s.c. into the left flank of 6-8 weeks old female CB17-SCID mice. On study day 17, when a mean tumor volume of approximately 100 mm^3 was reached, animals were randomly allocated into treatment groups with 8 mice per group and treatment was started. Treatment was applied every day p.o. at 35 mg/kg or 50 mg/kg for Compound 1 (application volume: 10 mL/kg; formulation buffer: 20% propylene glycol, 10% Solutol HS15, 70% phthalate buffer) and biweekly i.v. at 3 mg/kg or 10 mg/kg for tafasitamab (application volume: 5 mL/kg; formulation buffer: PBS). Tumor volume and body weight were measured twice weekly. Mice were sacrificed when reaching a tumor volume >1500 mm^3 or latest at study end on day 69 after tumor cell implantation. Mean tumor growth curves were calculated using GraphPad Prism software (version 8.4.3).
The proof of concept in vivo study was performed in WSU-DLCL2 tumor bearing CB17-SCID mice.

With `COC1CN([C@H]2CC[C@H]([C@@]3(C)Oc4c(Cl)cc(C(=O)NCc5c(SC)cc(C)[nH]c5=O)c(C)c4O3)CC2)C1` [Compound 1], the IC50 with SU-DHL-4 cells was determined as 17.1 nM; in the test on SU-DHL-6 cells, 3.8 nM.

B1: tafasitamab: humanized monoclonal antibody that targets the antigen CD19, engineered in the IgG Fc-region to enhance ADCC (antibody, chains of the INN, looked up)
heavy: EVQLVESGGGLVKPGGSLKLSCAASGYTFTSYVMHWVRQAPGKGLEWIGYINPYNDGTKYNEKFQGRVTISSDKSISTAYMELSSLRSEDTAMYYCARGTYYYGTRVFDYWGQGTLVTVSSASTKGPSVFPLAPSSKSTSGGTAALGCLVKDYFPEPVTVSWNSGALTSGVHTFPAVLQSSGLYSLSSVVTVPSSSLGTQTYICNVNHKPSNTKVDKKVEPKSCDKTHTCPPCPAPELLGGPDVFLFPPKPKDTLMISRTPEVTCVVVDVSHEDPEVQFNWYVDGVEVHNAKTKPREEQFNSTFRVVSVLTVVHQDWLNGKEYKCKVSNKALPAPEEKTISKTKGQPREPQVYTLPPSREEMTKNQVSLTCLVKGFYPSDIAVEWESNGQPENNYKTTPPMLDSDGSFFLYSKLTVDKSRWQQGNVFSCSVMHEALHNHYTQKSLSLSPG
light: DIVMTQSPATLSLSPGERATLSCRSSKSLQNVNGNTYLYWFQQKPGQSPQLLIYRMSNLNSGVPDRFSGSGSGTEFTLTISSLEPEDFAVYYCMQHLEYPITFGAGTKLEIKRTVAAPSVFIFPPSDEQLKSGTASVVCLLNNFYPREAKVQWKVDNALQSGNSQESVTEQDSKDSTYSLSSTLTLSKADYEKHKVYACEVTHQGLSSPVTKSFNRGEC
For the molecule B1, the tumor growth inhibition result with WSU-DLCL2 tumor (monotherapy 3 mg/kg i.v. BIW) and in the test with WSU-DLCL2 tumor (monotherapy 10 mg/kg i.v. BIW) was “did not reveal any tumor growth inhibition” in each case.
